Test results published in paper PMC12118337, “Development of a Peptide Inhibitor Targeting the C‐SH2 Domain of the SHP2 Phosphatase” (Chembiochem, 2025).
Residues, ends and D or L forms follow the SMILES beside them. *: point of attachment. 5FAM = O=C1OC2(c3ccc(O)cc3Oc3cc(O)ccc32)c2ccc(C(=O)*)cc21; X1 = O=C(O)C(C(=O)O)*

System: WT Jurkat T cells
Assay: Peptide cellular uptake by confocal fluorescence microscopy, Jurkat
Assay type: cell-based
Conditions: confocal fluorescence microscopy via FAM group, live cells, 50 or 100 μM peptide, 2 or 5 h, 37 °C; three independent experiments
Procedure: Multiply charged ions were selected for higher collisional dissociation (HCD) using a normalized collision energy (NCE) of 28%, fragmentation targeting for the 12 most abundant precursor ions. Fragment ions were measured with a resolution of 35,000 with a scan range of 200-2,000 m/z and an AGC target of 1E5. A dynamic exclusion time of 45 s with a maximum ion time of 120 ms and an isolation window of 3 m/z was set. Mass spectrometric data evaluation was performed using MaxQuant 1.6.5.0,[5] searching against a homo sapiens UniProt sequence database (2021/02; 218,230 entries including isoforms) supplemented with the protein sequences of the respective peptide used for the experiment. […] The protein list was analysed with Perseus v2.0.11.[6] […] The data was further analysed with the R language package and identified proteins compared with the CRAPome database (H. sapiens single step epitope tag AP-MS background contaminant list) to mitigate the influence of background contaminants (Table S2).[7] […] The significance thresholds were set to alpha 0.01 and a calculated log2 protein ratio of 4. […]
6. Peptide cellular uptake by fluorescence microscopy
The cell permeability of FAM-labelled peptides in WT Jurkat T cells (peptide 26 and peptide 28) and WT HeLa cells (peptide 28) was visualised by fluorescence microscopy. […]

CC[C@H](C)[C@H](NC(=O)[C@@H](NC(=O)[C@H](C)NC(=O)[C@H](Cc1ccc(OC(C(=O)O)C(=O)O)cc1)NC(=O)[C@H](CCC(=O)O)NC(=O)[C@@H](NC(=O)[C@H](CCC(N)=O)NC(=O)c1ccc2c(c1)C(=O)OC21c2ccc(O)cc2Oc2cc(O)ccc21)[C@@H](C)O)[C@@H](C)O)C(=O)N[C@@H](CCCCN)C(=O)N[C@@H](Cc1c[nH]cn1)C(=O)N1CCC[C@H]1C(N)=O [peptide 26] (5FAM-QTEY(X1)ATIKHP-NH2)
cellular uptake in Jurkat cells: no cell uptake
